Laboratory results from patent US12194071B2, “Methods and compositions with purified Bombyx mori cocoon silk peptide fiber and refined Buglossoides arvensis seed oil providing anti-inflammatory effects and neuroprotection for disease states” (Brain Health Holding LLC, priority 2019, dated 2025).

Tests used:
TNF-α = test: LPS-induced TNF-α production in RAW264.7 cells (ELISA); assay type: cell-based, mouse; details: for reduction in LPS-induced TNF-α production: study challenging RAW264.7 cells in 3 batches; for reduction in LPS-induced TNF-α production, RAW264.7 cells: omega-3/omega-6 study with DHA EE, EPA EE, SDA EE (toxic amount of SDA EE)
Procedure: RAW264.7 cells were seeded in 96 well plates at a density of 20,000 cells/well. On day 2, the cells were serum starved for 24 h in DMEM. Then, the cells were pre-treated with 60 μg/ml of Peptylin® alone or in combination with 50 μM or 100 μM NeurXcel® EE diluted in DMEM. Appropriate vehicle controls have been included, i.e. 0.5% EtOH+1.2% H2O. On day 4 the cells were LPS-induced (500 ng/ml) for 1.5 h and the supernatants were collected. A WST-8 assay was performed to measure cell viability and the supernatants were used for an ELISA assay to measure TNF-α levels. All the experiments were carried out with 9 replicates (for control and LPS treated cells) or 24 replicates (for cells treated with NX and/or PT). A t-test was used to compare the media of TNF-α levels between the treatment of NX alone and in combination with PT.
3.4 Experimental procedure RAW264.7 cells were seeded in 96-well plates at a density of 20,000 cells/well in DMEM+10% FBS. The next day, the cells were washed once with DPBS and serum starved for 24 h in 150 μL of DMEM. Then, the cells were treated with 150 μL of 60 μg/ml of Peptylin® and 100 or 50 μM NeurXcel® EE that were used either alone or in combination. Appropriate vehicle controls were also included in the assay, i.e. 0.5% ethanol+1.2% H2O. After 24 h, the cells were incubated for 1.5 h with 10 μL of LPS (7500 ng/ml) to reach a final concentration of 500 ng/ml. After the incubation, the supernatants were collected and a WST-8 assay was carried out. CCK-8 reagent (WST-8) was diluted 1:10 in DMEM media and 100 μL were added to each well and the plate was incubated at 37° C. After 15 minutes the absorbance was measured at 450 nm using the Synergy II microplate reader. WST-8 is bioreduced by cellular dehydrogenases to an orange formazan product that is soluble in tissue culture medium. The amount of formazan produced is directly proportional to the number of living cells. The ELISA assay was performed following the manufacturer's instructions. The TNF-α levels produced under each condition were normalized to the corresponding vehicle control (with or without EtOH). All the experiments were carried out with 9 replicates (for control and LPS treated cells) or 24 replicates (for cells treated with NX and/or PT). […] Using Microsoft Excel the following formula was used to calculate the p-value: =T.TEST (array1, array2, tails, type), where array1 corresponds to the TNF-α values for one treatment, array2 corresponds to TNF-α values for the co-treatment, one-tail test has been considered and type is 2 (two sample equal variance t-test). A p-value of 0.05 was used as the cutoff for significance.
After the treatments, the supernatants were collected and an ELISA assay was performed. First, the standard curve was generated (FIG. 43).
The TNF-α standard was measured in 8 serial 1:2 dilutions ranging from 0-4000 pg/ml. TNF-α production was measured by ELISA. Control: cells maintained in DMEM; LPS: LPS-induced cells in DMEM+0.5% EtOH+1.2% H2O; PT: cells pre-treated with 60 μg/ml of Peptylin® for 24 h; 50 NX and 100 NX: cells treated with 50 or 100 μM NX for 24 h; 50NX+PT and 100NX+PT: cells pre-treated with 50 or 100 μM NX and 60 μg/ml PT for 24 h. Then the cells were induced with 500 ng/ml LPS for 1.5 h. The data represent the mean±SD of an experiment performed in nine replicates (for Cntr and LPS) or 24 replicates (for PT and NX treatments). NS: non-significant; *** p<0.001.

TNF-alpha = test: LPS-induced TNF-alpha production in BV-2 cells; assay type: cell-based; details: compared with LPS controls
[1] = tested on: Reactive Oxygen Species (ROS) within SH-SY5Y neuroblastoma cells; test: H2O2-induced Reactive Oxygen Species generation in SH-SY5Y cells (DCF-DA); assay type: cell-based, human; details: Example 12
Procedure: Reactive Oxygen Species (ROS) within cells can be quantified by indexing using the fluorescent probe 2′,7′-dichlorofluroescin diacetate (DCF-DA) (Sigma-Aldrich, USA). When oxidized to the reactive oxygen metabolite, the DCF-DA can be excited at 485 nm and releases fluorescence at 530 nm.
SH-SY5Y neuroblastoma cells were incubated with 100 μl of 10% 1-BS/MEM in a 5×10^4 cells/well 96-well plate and cultured 24 hours, as in Example 1. The 10% FBS/MEM was removed and 1% FBS/MEM added to the cells. Composition A, B, C, D, or E was administered, and then DCF-DA in keeping with the DCF-DA assay described above.
After 4 hours, a 0.25 uM solution of H2O2 (a toxicity-inducing substance) was administered. Incubation time was for 2 hours before fluorescence test. Subsequently, fluorescence was measured at 530 nm to assess the level of active oxygen production.
In Examples 8 and 9, SH-SY5Y cells were exposed in separate, parallel models to H2O2 and FeSO4 to induce controlled cell death, but instead of analyzing cell viability in the presence of various active compounds, reactive oxygen species (ROS) generation was measured in the presence of various formulations, following peer-reviewed published methods. […]
Reactive oxygen species generation induced by H2O2 was measured by incubation with a fluorescent probe 2′,7′-dichlorofluorescin diacetate (DCF-DA). […]

Compound	reduction in LPS-induced TNF-α production (TNF-α)	reduction in LPS-induced TNF-α production, RAW264.7 cells (TNF-α)	further results
CCCCC/C=C\C/C=C\C/C=C\CCCCCCC(=O)OCC [DGLA EE]	11-18%		
CC/C=C\C/C=C\C/C=C\C/C=C\C/C=C\C/C=C\CCC(=O)OCC [DHA EE]		21-42%	
CC/C=C\C/C=C\C/C=C\C/C=C\C/C=C\CCCC(=O)OCC [EPA EE, eicosapentaenoic acid, ethyl ester]		32%	reduction in LPS-induced TNF-alpha production, BV-2 cells (TNF-alpha; another study): 18%; reduction in LPS-induced TNF-alpha production, BV-2 cells (TNF-alpha; study in which EPA EE gave 25%): 25%; reduction in LPS-induced TNF-alpha production, BV-2 cells (TNF-alpha; third study): 27-33%
CC(=O)N[C@@H](CS)C(=O)O [NAC, N-Acetyl-L-cysteine]			restoration of SH-SY5Y cells (positive control group) [1]: restored to normal levels
CC/C=C\C/C=C\C/C=C\C/C=C\CCCCC(=O)OCC [SDA EE]	16-24%	35-71%	
